Like-named read-outs stand apart in the source and are kept apart here.
Legend:
[1] = Solubility in common organic solvents; assay type: physicochemical; conditions: such as dichloromethane and acetone
Method: This example details the synthesis of a tetrabutyl ammonium molten salt of the amide having chemical formula III above. One-tenth of a mole (50 g) of the sodium salt of the amide-sulfonate salt having chemical structure III above (with R2 and R4 being CH2CH3, R1 and R5 each being a 2-ethylhexyl group, and R3 being CH2) was dissolved in 250 mL of dichloromethane, and one-tenth mole (32 g) of tetrabutyl ammonium bromide was added as a solid. The mixture was stirred for a day, after which time the solution was filtered first through filter paper and then through a short plug of silica gel. The eluted dichloromethane solution was quickly washed with water, dried over magnesium sulfate, and the solvent removed in vacuo, leaving the desired product in high yield (64 g, 89%). The product salt is soluble in both water and in several common organic solvents, such as dichloromethane and acetone. The melting range of the resulting salt was less than about 30° C. because the product was a viscous oil at room temperature. The product salt included Bis (N-ethyl-N-(2-ethylhexyl)sulfosuccinate diamide) anion paired with tetrabutyl ammonium cation.

[2] = Solubility in water; assay type: physicochemical
[3] = Method: Supercritical applications using CO2 typically operate at temperatures between above 32° C. and pressures above about 1,070 psi.
Remark: listed apart in the source

With `CCCCC(CC)CN(CC)C(=O)CC(C(=O)N(CC)CC(CC)CCCC)S(=O)(=O)[O-].CCCC[N+](CCCC)(CCCC)CCCC` (stereo not drawn) [Example 11] as the molecule, how does the “Solubility in several common organic solvents” value [1] read?
Its value is “soluble”.

What about the Solubility in water [2] of the same molecule?
The Solubility in water was “soluble”.

Which Solubility in water [2] does the source give for `CCCCC(CC)COC(=O)CC(C(=O)OCC(CC)CCCC)S(=O)(=O)[O-].CC[N+](CC)(CC)CC` (stereo not drawn) [Example 5, Et4N Docusate] here?
The Solubility in water was “miscible”.

With `CCCCC(CC)COC(=O)CC(C(=O)OCC(CC)CCCC)S(=O)(=O)[O-].CCCCC(CC)COC(=O)CC(C(=O)OCC(CC)CCCC)S(=O)(=O)[O-].C[N+](C)(C)CCCCCC[N+](C)(C)C` (stereo not drawn) [Example 3, Me3N(CH2)6NMe3 Docusate] as the molecule, how does the Solubility in water [2] read?
The Solubility in water was “Hydrophobic”.

Which “Solubility in supercritical carbon dioxide (CO2)” value [3] does the source give for `CCCCC(CC)COC(=O)CC(C(=O)OCC(CC)CCCC)S(=O)(=O)[O-].CCCC[N+](CCCC)(CCCC)CCCC` (stereo not drawn) [Example 1, tetrabutylammonium docusate] here?
Its value is “soluble”.

With `CCCCC(CC)COC(=O)CC(C(=O)OCC(CC)CCCC)S(=O)(=O)[O-].CCCC[N+](C)(CCCC)CCCC` (stereo not drawn) [Example 2, Me(n-Bu)3N Docusate] as the molecule, how does the Solubility in water [2] read?
The Solubility in water was “Hydrophobic”.

For `CCCCC(CC)COC(=O)CC(C(=O)OCC(CC)CCCC)S(=O)(=O)[O-].CCCCCCn1cc[n+](C)c1` (stereo not drawn) [Example 6, 1-n-hexyl-3-methyl imidazolium docusate], which “Phase behaviour on contact with water” value (addition of additional water to the gel, followed by agitation) is on record?
The value was “formation of two phases”.

And the “Phase behaviour on contact with water” value (contacted with 40 volume percent or less of water, even after agitation)?
The value was “formation of two phases”.

What about the “Phase behaviour on contact with water” value (contacted with 50 volume percent water, agitation) of the same molecule?
Its value is “stiff, visibly monophasic gel”.

Source: US7750166B2, “Ionic liquids containing a sulfonate anion” (University of South Alabama, priority 2002, dated 2010)
